Laboratory results published in patent US20260207570A1, “OPTIMIZED DOSING OF LERIGLITAZONE” (MINORYX THERAPEUTICS S.L., priority 2022, published 2026).

Key:
[1] = Phase 1 safety and tolerability (treatment-emergent adverse events); assay type: in vivo, human
Experimental: Study design: A phase 1, randomized, double blind, placebo-controlled, single-center clinical study in 33 male healthy volunteers (HV) (19-54 years, 63.2-95.7 Kg) was conducted with leriglitazone HCl and divided in two parts: a single ascending dose (SAD) with three dose levels (30, 90 and 270 mg) in fasted conditions, followed with two dose levels (90 and 270 mg) in fed conditions; a multiple ascending dose (MAD) with a double-blind, parallel-design with two dose levels (135 and 270 mg) for 8 days and a separate cohort of subjects in an open-label parallel design with two dose levels (135 and 270 mg) including cerebrospinal fluid (CSF) collection on day 8. In the fasted conditions a fasting period of at least 4 hours was required before obtaining plasma samples. The food effect (FE) was assessed by comparing fasted with fed conditions (dosing after a high-fat breakfast per FDA definition with a calculated caloric content of 918 kcal). In the MAD part (fed) the medication was taken before a normal breakfast. Leriglitazone HCl was supplied by ChemConnection and an oral suspension of leriglitazone (20% w/v kleptose, 2% ethanol in 100 mM phosphate buffer pH=7.8) at 6 mg/ml was used in the study. Safety: Safety and tolerability assessments consisted of adverse events (AEs), clinical laboratory, vital signs, 12-lead electrocardiogram (ECG), and physical examination.

[2] = substrate: CC(O)c1ccc(CCOc2ccc(CC3SC(=O)NC3=O)cc2)nc1; test: Metabolism kinetics with recombinant CYP2C8; assay type: in vitro ADME, human
Source text: CYP2C8 and CYP3A4 were identified in vitro as the major contributing enzymes of leriglitazone with CYP2C8 mostly responsible for the formation of the main metabolite M3. Kinetic parameters of human CYP2C8 and CYP3A4 mediated metabolism of leriglitazone were studied in in vitro studies using recombinant CYP3A4 and CYP2C8 enzymes (ADMESCOPE, Finland). […] As the disappearance of leriglitazone was very slow especially at high initial concentrations, the accuracy of the fit was not as good as based on M3 formation. […] Thus, it was not possible to fit the kinetic parameters Km and Vmax.

[3] = phase 1, healthy male volunteers
[4] = other: recombinant CYP2C8, based on M3 formation
[5] = other: recombinant CYP2C8, based on leriglitazone depletion

Molecule: CC(O)c1ccc(CCOc2ccc(CC3SC(=O)NC3=O)cc2)nc1.Cl (centres unmarked) [leriglitazone HCl, 5-[[4-[2-[5-(1-hydroxyethyl)pyridin-2-yl]ethoxy]phenyl]methyl]-1,3-thiazolidine-2,4-dione hydrochloride]
- clinical laboratory evaluations, vital signs, ECGs and physical examinations ([1]; phase 1, healthy male subjects): No clinically significant changes from baseline
- serious AEs [1, 3]: no serious AEs reported
- severity of treatment-emergent adverse events [1, 3]: of mild severity
- safety and tolerability ([1]; single and multiple doses, healthy male subjects): safe and well tolerated

B1: human CYP2C8 (Homo sapiens) (protein)
chain: MEPFVVLVLCLSFMLLFSLWRQSCRRRKLPPGPTPLPIIGNMLQIDVKDICKSFTNFSKVYGPVFTVYFGMNPIVVFHGYEAVKEALIDNGEEFSGRGNSPISQRITKGLGIISSNGKRWKEIRRFSLTTLRNFGMGKRSIEDRVQEEAHCLVEELRKTKASPCDPTFILGCAPCNVICSVVFQKRFDYKDQNFLTLMKRFNENFRILNSPWIQVCNNFPLLIDCFPGTHNKVLKNVALTRSYIREKVKEHQASLDVNNPRDFIDCFLIKMEQEKDNQKSEFNIENLVGTVADLFVAGTETTSTTLRYGLLLLLKHPEVTAKVQEEIDHVIGRHRSPCMQDRSHMPYTDAVVHEIQRYSDLVPTGVPHAVTTDTKFRNYLIPKGTTIMALLTSVLHDDKEFPNPNIFDPGHFLDKNGNFKKSDYFMPFSAGKRICAGEGLARMELFLFLTTILQNFNLKSVDDLKNLNTTAVTKGIVSLPPSYQICFIPV
notes: purchased ADMESCOPE, Finland
- Km [2, 4]: 34.0 µM
- kcat [2, 4]: 2.27 pmol/min/pmol CYP
- Km [2, 5]: 13.7 µM
- kcat [2, 5]: 1.60 pmol/min/pmol CYP
